In patent US20170367995A1, “TREATMENT OF EARLY STAGE PARKINSON'S DISEASE WITH A HYDROXYTYROSOL-CONTAINING POLYPHENOL FORMULATION” (Allevium Therapeutics, Inc., priority 2016, published 2017):

Key:
[1] = test system: subject diagnosed with Parkinson's disease; assay: Case of a Parkinson's subject given Olivenol Plus capsules (Example 1); format: in vivo, human; conditions: orally administered L-dopa for over three months before the polyphenol treatment, one subject
Procedure: The subject was given an olive polyphenol composition orally, in the form of two Olivenol Plus® capsules administered three times per day. As each capsule contains 12 mg olive polyphenols, including about 5 mg hydroxytyrosol, the daily dose given to the subject was 72 mg olive polyphenols, including 30 mg hydroxytyrosol.

[2] = even at high concentrations; Auñon-Calles et al. (2013); cited from earlier work
[3] = test system: iNOS production; assay: Western blot on the mesencephalic region: iNOS; design: species or system male adult CD1 mice
Procedure: (§1) In vitro testing was then carried out on the mesencephalic region, with respect to iNOS production, IkB-α, NF-κB, Bax, and Bcl2. Western blot analyses and corresponding bar graphs are presented in FIG. 5 (iNOS production, optical density normalized to β-actin), FIG. 6 (IkB-α, also normalized to β-actin), FIG. 7 (NF-κB, optical density normalized to lamin A/C), FIG. 8 (Bax, normalized to β-actin), and FIG. 9 (Bcl2, normalized to β-actin). In each case, the effect of hydroxytyrosol is marked.

[4] = test system: cells from the mesencephalic region; assay: Histology of cells from the mesencephalic region, rotenone mouse model; format: in vivo, male adult CD1 mice; conditions: hydroxytyrosol-treated relative to rotenone-only ("vehicle") group
[5] = test system: Bax; assay: Western blot on the mesencephalic region: Bax; design: species or system male adult CD1 mice
Procedure: as §1

[6] = test system: IkB-α; assay: Western blot on the mesencephalic region: IkB-α; design: species or system male adult CD1 mice
Procedure: as §1

[7] = test system: rotenone-induced PD state; assay: Pole test (body coordination and balance) in rotenone mouse model of PD; format: in vivo, male adult CD1 mice; conditions: hydroxytyrosol 10 mg/kg/day plus rotenone 5 mg/kg/day i.p., 28 days, relative to rotenone only
[8] = test system: Bcl2; assay: Western blot on the mesencephalic region: Bcl2; design: species or system male adult CD1 mice
Procedure: as §1

[9] = test system: NF-κB; assay: Western blot on the mesencephalic region: NF-κB; design: species or system male adult CD1 mice
Procedure: as §1

[10] = test system: endothelial cell; assay: Endothelial cell based assay (pro-/anti-oxidant effect)
From the text: Without wishing to be bound by theory, it may be postulated that the removal of hydroxytyrosol from its original matrix and natural environment can result in adverse effects, and that at least some of the naturally occurring associated polyphenols are necessary to include in a therapeutic hydroxytyrosol formulation.

SMILES	improvement after treatment [1]	toxicity [2]	iNOS production, optical density normalized to β-actin, FIG. 5 [3]	histologic injury score, FIG. 4 [4]	Bax, normalized to β-actin, FIG. 8 [5]	IkB-α, normalized to β-actin, FIG. 6 [6]	pole test time to turn (orientation time), FIG. 1B [7]	pole test total time (orientation and complete descent), FIG. 1A [7]	Bcl2, normalized to β-actin, FIG. 9 [8]	NF-κB, optical density normalized to lamin A/C, FIG. 7 [9]	pro-oxidant / anti-oxidant effect [10]
N[C@@H](Cc1ccc(O)c(O)c1)C(=O)O [L-dopa]	no noticeable improvement										
OCCc1ccc(O)c(O)c1 [hydroxytyrosol, 4-(hydroxyethyl)-1,2-benzene diol]		no toxicity has been detected	marked	significantly reduces	marked	marked	significantly lowers	significantly lowers	marked	marked	pro-oxidant effect
